Laboratory results: US20090074774A1, “Fgfr binding peptides” (priority 2004, published 2009)
Entries after “also recorded” stand apart in the source; their conditions may differ.

Key:
[1] = tested on: rat cerebellar granular neurons; assay: Survival assay of cerebellar granule neurons (apoptosis induced by low KCl); assay type: cell-based; conditions: for survival of CGN in culture: peptides as dendrimers (CDLd, EFLd, ABLd), apoptosis induced by 5 mM KCl, two days; for survival effect compared with the C3 peptide and GDNF: peptides as dendrimers, FIG. 2A
Procedure: The effect of the peptides is compared to the effect of glia-derived neurotrophic factor (GDNF) and dendrimeric form of the C3 peptide (C3d). […] Paired student's t-test.
Primary cultures of CGN were plated at a density of 100,000 cells/cm^2 on poly-L-lysine coated 8-well permanox slides in Neurobasal-A medium (Gibco, BRL) supplemented with 2% (v/v) B27, 0.5% (v/v) glutamax, 100 U/ml penicillin, 100 μg/ml streptomycin and KCl, making the final concentration of KCl in the medium 40 mM. 24 hours after plating, cytosine-β-D-arabinofuranoside (Ara-C; Sigma-Aldrich) was added to a final concentration of 10 μM to avoid proliferation of glial cells, after which the neurons were allowed to differentiate for further six days at 37° C. Apoptotic cell death was induced by washing twice and changing the medium to Basal Medium Eagle (BME; Gibco BRL) supplemented with 1% (v/v) glutamine, 100 U/ml penicillin and 100 μg/ml streptomycin, 3.5 g D-glucose/l and 1% (v/v) sodium pyruvate (Gibco BRL) together with various concentrations of peptide. Thereby the concentration of potassium in the cultures was reduced to 5 mM KCl. Two days after induction of apoptosis, the cells were fixed with 4% formaldehyde and stained with Hoechst 33258 as described for the survival assay employing hippocampal neurons.
The assay is performed as described by D'Mello et al., (1993) (Proc Natl Acad Sci U S A. 90:10989-93).

[2] = molecular target: T1, recombinant FGFR1 (immobilized FGFR Ig modules 2, 3) (Homo sapiens, UniProt P11362); assay: Binding of fragments of NCAM F3, 1 to FGFR1 by surface plasmon resonance; conditions: 25° C., pH 7.4
T1 construct: The FGFR Ig modules 2, 3 were immobilized on a sensor chip CM5; made in house; host or cells: Drosophila S2 cells (Invitrogen)
T1 sequence (P11362 150-365 limits assumed): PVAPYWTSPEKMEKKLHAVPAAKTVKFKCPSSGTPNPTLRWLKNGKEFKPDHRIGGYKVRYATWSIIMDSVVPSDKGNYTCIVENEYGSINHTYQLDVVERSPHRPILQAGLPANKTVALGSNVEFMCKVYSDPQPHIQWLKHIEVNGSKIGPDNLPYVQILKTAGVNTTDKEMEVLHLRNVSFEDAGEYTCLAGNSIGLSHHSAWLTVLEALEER
From the text: The binding is given as a response difference (Resp. Diff.) between the binding to the sensor chip with the immobilized FGFR1 modules and a blank sensor chip (unspecific binding). Abbreviations: AB-A strand-loop-B strand (corresponds to the ABL peptide of SEQ ID NO: 2); CD-C strand-loop-D strand (corresponds to the CDL peptide of SEQ ID NO: 1); EF-E strand-loop-F strand (corresponds to the EFL peptide of SEQ ID NO: 5); BC-B strand-loop-C strand of F3, 1 module of NCAM; DE-D strand-loop-E strand of F3, 1 module of NCAM; FG-F strand-loop-G strand of F3, 1 module of NCAM.
The FGFR Ig module 3 and modules 2, 3 were expressed in Drosophila S2 cells (Invitrogen, USA) according to the manufacturer's instructions. All the proteins were purified by affinity chromatography using Ni^2+-NTA resin (Qiagen, USA) and/or ion exchange chromatography and gel filtration.
Binding analysis was performed using a BIAcoreX instrument (Biosensor AB) at 25° C. using 10 mM sodium phosphate pH 7.4, 150 mM NaCl as running buffer. The flow-rate was 5 μl/min. Data were analysed by non-linear curve-fitting using the manufacture's software. The FGFR Ig modules 2, 3 were immobilized on a sensor chip CM5 using amine coupling kit (Biosensor AB) as follows: 1) the two halves of the chip (designated Fc1 and Fc2) were activated by 20 μl activation solution; 2) the protein was immobilized on Fc1 using 12 μl 20 μg/ml protein in 10 mM sodium phosphate buffer pH 6.0; 3) Fc1 and Fc2 were blocked by 35 μl blocking solution. Binding of various compounds to the immobilized FGFR modules was studied as follows: A compound was injected simultaneously into Fc1 (with the immobilized FGFR modules) and Fc2 (with nothing immobilized). The curve representing unspecific binding of the compound to the surface of Fc2 was subtracted from the curve representing binding of the protein to the immobilized FGFR modules and the surface of Fc1. The resulting curve was used for analysis. The results of the binding experiments are present on FIG. 4.

[3] = tested on: rat cerebellar granular neurons (CGNs); assay: Stimulation of neurite outgrowth of cerebellar granule neurons in culture; assay type: cell-based; conditions: for stimulation of neurite outgrowth: CGNs from 7-day-old rats, peptide treatment 24 h, culture without substrate; for effect of FGFR inhibitor on neurite outgrowth stimulated by EFL: CGNs
Procedure: B. Neurite outgrowth stimulated by EFL is inhibited by SU5402, an inhibitor of fibroblast growth factor receptor 1 (FGFR1). Results from four independent experiments are in all cases expressed as a percentage±SEM, with non-treated control cells set at 100%. *P<0.05, **P<0.01, ***P<0.001, compared with control. Paired student's t-test. For experiments, CGNs from 7-old-day rats were treated with the peptides for 24 hr. The cultures were fixed in 4% paraformaldehyde, followed by blocking with 1% BSA and then immunostained with rabbit anti-rat GAP-43 primary antibodies, and then with secondary Alexa Fluor®488 goat anti-rabbit antibodies.
Cerebellar granule neurons (CGN) were prepared from postnatal day seven Wistar rats largely as previously described (Neiiendam et al, (2004) J. Neurochem. 91(4):920-35). Cerebellar tissue was dissected in modified Krebs-Ringer solution kept on ice, and treated as described for the hippocampal neurons above. All cell cultures were incubated at 37° C. in a humidified atmosphere containing 5% CO2. All animals were handled in accordance with the national guidelines for animal welfare.
Dissociated cells were plated at a density of 10,000 cells/cm^2 on uncoated 8-well permanox Lab-Tek chamber slides in Neurobasal medium supplemented with 0.4% (w/v) bovine serum albumin (BSA; Sigma-Aldrich), 2% (v/v) B27 Neurobasal supplement, 1% (v/v) glutamax, 100 U/ml penicillin, 100 μg/ml streptomycin and 2% 1 M HEPES (all from Gibco, BRL). Peptide solutions without or with inhibitors of various signal transduction pathways were added to a total volume of 300 μl/cm^2, and the slides were incubated at 37° C. After 24 hours, the neurons were fixed with 4% (v/v) formaldehyde for 20 minutes and thereafter immunostained using primary rabbit antibodies against GAP-43 and Alexa Fluor secondary goat anti-rabbit antibodies. Images of at least 200 neurons for each group in each individual experiment were obtained systematically by using computer assisted fluorescence microscopy as previously described (Ronn et al., 2000 op. cit.). Briefly, a Nikon Diaphot inverted microscope with a Nikon Plan 20× objective (Nikon, Tokyo, Japan) coupled to a video camera (Grundig Electronics, Germany) was used for recordings. The same software package as described above for the dopaminergic neurite outgrowth assay was used to process the recorded images.

[4] = tested on: caspase3-like activity in cultures of rat cerebellar granular neurons; assay: Caspase-3-like activity assay in cerebellar granule neurons; assay type: cell-based; conditions: monomeric peptides; for apoptosis-associated Caspase-3-like activity: cells in culture medium depleted of KCl (5 mM); for effect on Caspase-3-like activity compared with high KCl (40 mM): culture medium depleted of KCl
Procedure: The effect of the peptide is compared to the effect of high concentration of kCl. *P<0.05, **P<0.01, paired student's t-test
Primary cultures of CGN were prepared as described above and apoptosis in cells was induced as described above.
For the caspase-3 assay, cultured CGN were dislodged, collected by centrifugation and lyzed. Aliquots of lysed cells were used for the assay which was performed according to the manufacturer's instructions (Promega, USA),

adult male Wistar rats = assay: Contextual Fear Conditioning Test (CFC); assay type: in vivo, rat; conditions: peptide injected immediately after training
Procedure: The rats were handled for 120 seconds every day for 3 days preceding the first day of the experiment. On day 1 (training), the rats received a 1-second shock (unconditioned stimuli) each minute for two minutes. Animals were injected immediately after training with 5 μl EFL, ABL, CDL or control peptide, or the vehicle. Each treatment group consisted of 11-14 rats. In total, […] animals were evaluated. […] Each rat was rated as either “freezing” or “active”, every 2 seconds, using a time-sampling procedure.

rats = assay: Social Recognition Test (SRT); assay type: in vivo, rat; conditions: subcutaneous 4 mg/kg; 1 h and 24 h after administration; paired t-test
Procedure: Results from 8-9 animals expressed as a percentage±SEM. Paired t-test (*P<0.05 and ***P<0.001); B Time spent with social investigation at first meeting (T1) and second meeting (T2) 24 h after peptide/vehicle administration. Results from 9 animals expressed as a percentage±SEM. Paired t-test (*P<0.05).
The animals were evaluated using the SRT, 1 hour and 24 hours after subcutaneous injection of the peptide or vehicle.
Habituation session: On the day before the social recognition test (SRT), one habituation session was performed under similar conditions as the test session for adaptation to the experimental room, time when the test was performed, test cage, and contact with juvenile rats (a different juvenile was used during habituation session and social recognition test). The inter-trial interval for the habituation session was of 1 hour.
Experimental session: Each experimental session consisted of an initial and a test trial separated by an inter-trial (retention) interval of 2 hours.
Initial trial. Adult animals were individually housed 1 hour before testing in the test cage. For testing, a juvenile was placed into the cage and the social investigation by the adult rat was measured cumulatively for 4 min. Sniffing and grooming of body parts, anogenital sniffing and close following were scored. […]

[5] = tested on day 8 after conditioning, placebo/control 32%

Row | Compound | survival of CGN in culture [1] | direct binding to FGFR (SPR) [2] | stimulation of neurite outgrowth [3] | effect of FGFR inhibitor on neurite outgrowth stimulated by EFL [3] | effect of FGFR inhibitor on neurite outgrowth stimulated by EFL ([3]; listed as SU5402) | apoptosis-associated Caspase-3-like activity [4] | effect on Caspase-3-like activity compared with high KCl (40 mM) [4] | survival effect compared with the C3 peptide and GDNF [1] | time of freezing (adult male Wistar rats; [5]) [%] | difference between T1 and T2 of the same animal (presence of social memory) (rats) | time of freezing (adult male Wistar rats; tested on day 1 after conditioning, placebo/control 40.0%)
1 | SIDRVEPYSSTAQVQFD (ABL peptide, fragment of NCAM F3,1) [A strand-loop-B strand fragment of NCAM F3, 1 module] | does not influence survival | capable of direct binding | inactive | – | – | – | – | – | – | – | –
2 | Cc1c[nH]c(/C=C2\C(=O)Nc3ccccc32)c1CCC(=O)O [SU 5402] | – | – | – | abolished | inhibited | – | – | – | – | – | –
3 | KAEWKSLGEEAWHSK (CDL peptide, fragment of NCAM F3,1) [C strand-loop-D strand fragment of NCAM F3, 1 module] | significantly promote survival | capable of direct binding | strong stimulators; also recorded: stimulate neurite outgrowth | – | – | inhibit | comparable | higher | 42.5 | significant differences between T1 and T2 | –
4 | TIMGLKPETRYAVR (TIMGLKPETRTYAVR; EFL peptide, fragment of NCAM F3,1) [E strand-loop-F strand fragment of NCAM F3, 1, used as positive control] | significantly promote survival | capable of direct binding | strong stimulators; also recorded: stimulate neurite outgrowth | – | – | inhibit | comparable | higher | 42.5 | significant differences between T1 and T2 | approximately 50.3%
